The test system of series [1] is MCF7. The series can be described thus: Antiproliferative activity against human MCF7 cells after 48 hrs by MTT assay. The note with it: MCF7, 48 h. Type of series: functional, cell-based.
The test system of the next series is HUVEC. The series can be described thus: Antiproliferative activity against HUVEC after 48 hrs by MTT assay. Type of series: functional, cell-based. The note with it: Homo sapiens. On the technique in general: Tetrazolium dyes change colour on reduction, which living cells bring about.
Series [2] concerns Ishikawa. The series can be described thus: Antiproliferative activity against human Ishikawa cells after 48 hrs by MTT assay. Type of series: functional, cell-based.
The test system of series [3] is MCF7. The series can be described thus: Effect on PgR mRNA expression in human MCF7 cells at 1 uM by SYBR Green dye based RT-PCR analysis. It counts as functional, cell-based.
In series [4] the test system is Ishikawa. The series can be described thus: Antiproliferative activity against human Ishikawa cells at >40 uM after 48 hrs by MTT assay. Type of series: functional, cell-based.
The test system of series [5] is Ishikawa. The series can be described thus: Stimulation of cell proliferation in human Ishikawa cells at 10 uM after 48 hrs by MTT assay. It counts as ADME, cell-based.
Another series deals with Chorioallantoic membrane. The series can be described thus: Antiangiogenic activity in chicken fertilized egg chorioallantoic membrane at 1 to 20 uM measured after 72 hrs. Type of series: functional, tissue-based. Conditions: Gallus gallus.
Series [6] deals with Vascular endothelial growth factor receptor 2 (Homo sapiens) (UniProt P35968). Conditions: HUVEC, at 1 µM.
Chain of Vascular endothelial growth factor receptor 2 (Homo sapiens) (P35968 whole entry): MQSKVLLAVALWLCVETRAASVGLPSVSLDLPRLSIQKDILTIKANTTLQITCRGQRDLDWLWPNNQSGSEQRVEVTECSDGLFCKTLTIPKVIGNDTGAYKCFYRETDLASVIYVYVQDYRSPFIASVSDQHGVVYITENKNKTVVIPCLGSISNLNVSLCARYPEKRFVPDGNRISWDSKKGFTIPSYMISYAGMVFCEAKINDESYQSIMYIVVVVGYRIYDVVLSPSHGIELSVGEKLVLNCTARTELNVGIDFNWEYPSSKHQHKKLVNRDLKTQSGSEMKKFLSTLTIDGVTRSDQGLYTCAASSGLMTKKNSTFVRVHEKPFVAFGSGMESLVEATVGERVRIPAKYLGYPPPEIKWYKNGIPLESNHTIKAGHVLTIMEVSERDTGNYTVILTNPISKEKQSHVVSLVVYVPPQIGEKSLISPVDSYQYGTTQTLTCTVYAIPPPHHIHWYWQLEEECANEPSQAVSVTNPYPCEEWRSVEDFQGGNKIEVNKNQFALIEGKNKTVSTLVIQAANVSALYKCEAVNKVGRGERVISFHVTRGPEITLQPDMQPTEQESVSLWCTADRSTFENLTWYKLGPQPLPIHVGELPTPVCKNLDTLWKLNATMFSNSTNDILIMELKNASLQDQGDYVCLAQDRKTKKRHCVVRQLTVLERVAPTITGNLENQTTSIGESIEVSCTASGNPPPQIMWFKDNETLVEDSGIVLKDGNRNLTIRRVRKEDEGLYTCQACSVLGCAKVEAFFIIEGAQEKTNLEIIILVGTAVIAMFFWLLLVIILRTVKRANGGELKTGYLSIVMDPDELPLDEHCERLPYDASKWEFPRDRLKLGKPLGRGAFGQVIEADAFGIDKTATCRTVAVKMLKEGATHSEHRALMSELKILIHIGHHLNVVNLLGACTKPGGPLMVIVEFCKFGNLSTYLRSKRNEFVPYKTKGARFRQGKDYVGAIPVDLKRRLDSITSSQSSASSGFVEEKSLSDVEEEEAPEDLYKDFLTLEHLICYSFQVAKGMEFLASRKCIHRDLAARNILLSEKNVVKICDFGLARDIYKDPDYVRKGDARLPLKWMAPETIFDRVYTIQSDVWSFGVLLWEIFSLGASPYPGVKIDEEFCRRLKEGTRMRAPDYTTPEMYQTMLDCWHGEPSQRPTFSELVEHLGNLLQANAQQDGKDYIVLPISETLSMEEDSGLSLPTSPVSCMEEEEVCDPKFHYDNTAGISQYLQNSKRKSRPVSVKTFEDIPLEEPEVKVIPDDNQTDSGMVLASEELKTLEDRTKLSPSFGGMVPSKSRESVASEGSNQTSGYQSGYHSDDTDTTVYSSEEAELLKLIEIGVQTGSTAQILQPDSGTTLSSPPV
Description: Inhibition of VEGFR2 phosphorylation in HUVEC at 1 uM after 24 hrs by Western blot analysis

pIC50: −log10 of the molar value. Calls of active or inactive are those of the source. The rule behind the calls is not given here.

Usually pIC50 stands for −log10 of the IC50, conventionally taken in molar units. A higher pIC50 goes with a small IC50.

On to `COc1ccc(-c2cc(-c3ccc(OC)cc3)nc(Nc3ccc(OCCN4CCCC4)cc3)n2)cc1`, for which the pIC50 in the series with MCF7 [1] was 5.59; in the series with HUVEC, 5.68; in the series on Ishikawa [2], 5.41.

As to `COc1ccc(-c2cc(-c3ccc(OC)cc3)nc(Nc3ccc(OCCN4CCCCC4)cc3)n2)cc1`, the pIC50 in the series on MCF7 [1] is 4.49; in the series on HUVEC it was 5.27; with Ishikawa [2], 5.72.

Turning to `COc1ccc(-c2cc(-c3ccc(O)cc3)nc(Nc3ccc(NC(=O)CN4CCCC4)cc3)n2)cc1`, the pIC50 with MCF7 [1] is 5.35; in the series with HUVEC, 5.64; with Ishikawa [2], 5.26.

`CN1CCN(CC(=O)Nc2ccc(Nc3nc(-c4ccc(O)cc4)cc(-c4ccc(O)cc4)n3)cc2)CC1`: the pIC50 in the series on MCF7 [1] was 5.28; with HUVEC it was 5.17; in the series with Ishikawa [2], 5.31.

Consider `CCN(CC)CCOc1ccc(Nc2nc(-c3ccc(O)cc3)cc(-c3ccc(OC)cc3)n2)cc1`, for which the pIC50 was 5.25 in the series on MCF7 [1], 5.46 in the series on HUVEC and 5.19 with Ishikawa [2].

With `COc1ccc(-c2cc(-c3ccc(O)cc3)nc(Nc3ccc(OCCN(C)C)cc3)n2)cc1`, the pIC50 is 5.44 in the series with MCF7 [1], 5.33 in the series with HUVEC and 5.28 in the series with Ishikawa [2].

In the case of `COc1ccc(-c2cc(-c3ccc(O)cc3)nc(Nc3ccc(OCCN4CCCC4)cc3)n2)cc1`, the pIC50 with MCF7 [1] was 5.34; with HUVEC it was 5.51; with Ishikawa [2], 5.23.

Turning to `O=C(CN1CCOCC1)Nc1ccc(Nc2nc(-c3ccc(O)cc3)cc(-c3ccc(O)cc3)n2)cc1`, the pIC50 in the series with MCF7 [1] is 4.81; with HUVEC, 4.33; in the series on Ishikawa [2], 4.22.

As for `COc1ccc(-c2cc(-c3ccc(OC)cc3)nc(Nc3ccc(OCCN4CCN(C)CC4)cc3)n2)cc1`, the pIC50 is 5.38 with MCF7 [1], 5.52 in the series with HUVEC and 5.24 with Ishikawa [2].

For `Oc1ccc(-c2cc(-c3ccc(O)cc3)nc(Nc3ccc(OCCN4CCCCC4)cc3)n2)cc1`, the pIC50 in the series with MCF7 [1] is 5.21; with HUVEC, 5.34; with Ishikawa [2] it was 5.30.

For the molecule `COc1ccc(-c2cc(-c3ccc(O)cc3)nc(Nc3ccc(NC(=O)CN4CCCCC4)cc3)n2)cc1`, the pIC50 with MCF7 [1] is less than 4.00; in the series with HUVEC, 4.97; in the series with Ishikawa [2] it was 5.85.

In the case of `CN1CCN(CCOc2ccc(Nc3nc(-c4ccc(O)cc4)cc(-c4ccc(O)cc4)n3)cc2)CC1`, the pIC50 in the series on MCF7 [1] was 5.28; in the series on HUVEC, 5.60; with Ishikawa [2], 5.27.

For the molecule `COc1ccc(-c2cc(-c3ccc(OC)cc3)nc(Nc3ccc(NC(=O)CN4CCN(C)CC4)cc3)n2)cc1`, the figures for the pIC50 in the series on MCF7 [1], in the series with HUVEC and with Ishikawa [2] were 5.74, 5.30 and 5.24, respectively.

Turning to `COc1ccc(-c2cc(-c3ccc(O)cc3)nc(Nc3ccc(NC(=O)CN4CCN(C)CC4)cc3)n2)cc1`, the values for the pIC50 in the series on MCF7 [1], in the series on HUVEC and with Ishikawa [2] were 5.39, 5.33 and 5.38, respectively.

In the series with MCF7 [1], `COc1ccc(-c2cc(-c3ccc(OC)cc3)nc(Nc3ccc(NC(=O)CN4CCOCC4)cc3)n2)cc1` had a pIC50 of 4.48.

`Oc1ccc(-c2cc(-c3ccc(O)cc3)nc(Nc3ccc(OCCN4CCOCC4)cc3)n2)cc1` gave a pIC50 in the series on HUVEC of 4.13.

In the case of `O=C(CN1CCCCC1)Nc1ccc(Nc2nc(-c3ccc(O)cc3)cc(-c3ccc(O)cc3)n2)cc1`, the pIC50 in the series with MCF7 [1] is 4.58; with HUVEC, 5.13; in the series on Ishikawa [2] it was 4.87.

Regarding `CCN(CC)CCOc1ccc(Nc2nc(-c3ccc(O)cc3)cc(-c3ccc(O)cc3)n2)cc1`, the figures for the pIC50 in the series on MCF7 [1], with HUVEC and in the series with Ishikawa [2] were 5.29, 5.60 and 5.32, respectively.

For `COc1ccc(-c2cc(-c3ccc(O)cc3)nc(Nc3ccc(OCCN4CCN(C)CC4)cc3)n2)cc1`, the results for the pIC50 with MCF7 [1], in the series on HUVEC and with Ishikawa [2] were 5.32, 5.62 and 5.28, respectively.

Consider `COc1ccc(-c2cc(-c3ccc(O)cc3)nc(Nc3ccc(OCCN4CCCCC4)cc3)n2)cc1`, for which the pIC50 in the series with MCF7 [1] is 4.77; in the series on HUVEC, 5.35; in the series on Ishikawa [2], 5.32.

Consider `CN(C)CC(=O)Nc1ccc(Nc2nc(-c3ccc(O)cc3)cc(-c3ccc(O)cc3)n2)cc1`, for which the results for the pIC50 in the series with MCF7 [1], in the series with HUVEC and in the series on Ishikawa [2] were 4.40, 4.22 and 5.10, respectively.

With `COc1ccc(-c2cc(-c3ccc(O)cc3)nc(Nc3ccc(NC(=O)CN(C)C)cc3)n2)cc1`, the results for the pIC50 in the series with MCF7 [1], in the series on HUVEC and with Ishikawa [2] were 5.47, 5.42 and 5.20, respectively.

For `CCN(CC)CC(=O)Nc1ccc(Nc2nc(-c3ccc(O)cc3)cc(-c3ccc(O)cc3)n2)cc1`, the pIC50 in the series with MCF7 [1] was 4.57; in the series on HUVEC, 4.72; in the series on Ishikawa [2], 4.76.

Regarding `CC/C(=C(\c1ccccc1)c1ccc(OCCN(C)C)cc1)c1ccccc1` [TAMOXIFEN], the outcome with MCF7 [3] was inactive. Moreover, in the series with Ishikawa [4], the result was Active. The Activity result in the series with Ishikawa [5] is on record as “Toxic”.

As for `COc1ccc(-c2cc(-c3ccc(OC)cc3)nc(Nc3ccc(NC(=O)CN(C)C)cc3)n2)cc1`, the pIC50 in the series on MCF7 [1] is 5.60; in the series with HUVEC it was 5.55; in the series with Ishikawa [2], 5.44.

Regarding `CN(C)CCOc1ccc(Nc2nc(-c3ccc(O)cc3)cc(-c3ccc(O)cc3)n2)cc1`, the pIC50 in the series on MCF7 [1] is 4.71; in the series on HUVEC it was 5.33; in the series on Ishikawa [2] it was 5.80.

For the molecule `Oc1ccc(-c2cc(-c3ccc(O)cc3)nc(Nc3ccc(OCCN4CCCC4)cc3)n2)cc1`, the pIC50 was 4.24 with MCF7 [1], 5.33 in the series on HUVEC and 5.35 in the series on Ishikawa [2].

Consider `CCN(CC)CCNC(=O)c1c(C)[nH]c(/C=C2\C(=O)Nc3ccc(F)cc32)c1C` [SUNITINIB], for which the outcome with Chorioallantoic membrane was Active. In the series on HUVEC, this molecule showed a pIC50 of 5.52.

For `COc1ccc(-c2cc(-c3ccc(OC)cc3)nc(Nc3ccc(OCCN(C)C)cc3)n2)cc1`, the pIC50 with MCF7 [1] was 5.44; with HUVEC, 5.34; in the series with Ishikawa [2] it was 5.29.

For the molecule `COc1ccc(-c2cc(-c3ccc(OC)cc3)nc(Nc3ccc(NC(=O)CN4CCCC4)cc3)n2)cc1`, the values for the pIC50 in the series with MCF7 [1], in the series on HUVEC and in the series with Ishikawa [2] were 5.66, 5.60 and 5.72, respectively. In the series with MCF7 [3], the outcome was inactive. Also, the outcome with Chorioallantoic membrane was Active. Moreover, the inhibition entry in series [6] is “Active”.

Regarding `CCN(CC)CCOc1ccc(Nc2nc(-c3ccc(OC)cc3)cc(-c3ccc(OC)cc3)n2)cc1`, the pIC50 in the series with MCF7 [1] was 5.30; with HUVEC, 5.66; in the series with Ishikawa [2] it was 5.37.

For the molecule `CCN(CC)CC(=O)Nc1ccc(Nc2nc(-c3ccc(O)cc3)cc(-c3ccc(OC)cc3)n2)cc1`, the pIC50 with MCF7 [1] is 4.31; with HUVEC, 4.66; with Ishikawa [2], 4.79.

Consider `O=C(CN1CCCC1)Nc1ccc(Nc2nc(-c3ccc(O)cc3)cc(-c3ccc(O)cc3)n2)cc1`, for which the values for the pIC50 in the series on MCF7 [1], in the series on HUVEC and in the series on Ishikawa [2] were 4.71, 5.15 and 5.08, respectively.

On to `COc1ccc(-c2cc(-c3ccc(O)cc3)nc(Nc3ccc(NC(=O)CN4CCOCC4)cc3)n2)cc1`, for which the pIC50 with MCF7 [1] is 4.72; in the series with HUVEC it was 4.99; in the series on Ishikawa [2] it was 4.37.

Values taken from ChEMBL document CHEMBL4219095, “Synthesis and biological evaluation of 4,6-diaryl-2-pyrimidinamine derivatives as anti-breast cancer agents” (Bioorg Med Chem Lett, 2018).
